A word on the melting point: it is the temperature, or range, at which the solid turns liquid.

In turn, `CCOC(=O)c1cc(C(=O)c2ccc(C)cc2)n2c1ccc1cc(C)ccc12` gave a melting point of 155 to 156 °C.

The molecule `CCOC(=O)c1cc(C(=O)c2ccccc2)n2c1ccc1cc(C)ccc12` registered a melting point of 139 to 140 °C.

For `CCOC(=O)c1cc(C(=O)c2ccc(F)cc2)n2c1ccc1cc(C)ccc12`, the melting point was in the range of 163 to 164 °C.

`CCOC(=O)c1cc(C(=O)c2ccccc2[N+](=O)[O-])n2c1ccc1cc(C)ccc12` [Compound 4d, Ethyl 7-methyl-1-(2-nitrobenzoyl)pyrrolo[1,2-a]quinoline-3-carboxylate] gave a melting point of 174 to 175 °C.

Molecule `CCOC(=O)c1cc(C(=O)c2ccc(Br)cc2)n2c1ccc1cc(C)ccc12` [Compound 4e, Ethyl 1-(4-bromobenzoyl)-7-methylpyrrolo[1,2-a]quinoline-3-carboxylate] registered a melting point of 180 to 181 °C.

`CCOC(=O)c1cc(C(=O)c2cc(C(F)(F)F)cc(C(F)(F)F)c2)n2c1ccc1cc(C)ccc12` [Compound 4f, Ethyl 1-(3,5-bis(trifluoromethyl)benzoyl)-7-methylpyrrolo[1,2-a]quinoline-3-carboxylate] displayed a melting point of 223 to 224 °C.

These data come from patent US11845746B1 (priority 2023, dated 2023).
